# According to ChEMBL document CHEMBL5120857, “Rational design, synthesis and biological evaluation of dual PARP-1/2 and TNKS1/2 inhibitors for cancer therapy” (Eur J Med Chem, 2022):
# pIC50: −log10 of the molar value. Calls of active or inactive are those of the source. The rule behind the calls is not given here.
# How the values were obtained:
# HCT-116 [1] = experiment: Induction of cell cycle arrest in human HCT-116 cells assessed as S phase cells at 5 uM incubated for 3 days by propidium iodide staining based flow cytometry (reference value: 11.26 %); type: functional; conditions: time 3 day
# HCT-116 [2] = experiment: Antitumor activity against human HCT-116 cells xenografted in BALB/c nude mouse assessed as tumor growth inhibition at 100 mg/kg, ip administered once daily for 28 days; type: functional; conditions: HCT-116, 672 h, time 28 day, read-out: TGI
# [3] = biological target: Protein mono-ADP-ribosyltransferase PARP14 (Homo sapiens, UniProt Q460N5); experiment: Inhibition of PARP-14 (unknown origin)
# [4] = Clearance in Sprague-Dawley rat at 10 mg/kg, po or 1 mg/kg, iv; type: ADME, organism-based; conditions: in vivo
# HCT-116 [5] = experiment: Inhibition of Wnt/beta-Catenin signaling in human HCT-116 cells assessed as increase in axin2 levels at 10 uM by Western blot analysis; type: cell-based
# [6] = biological target: T1, Protein mono-ADP-ribosyltransferase TIPARP (Homo sapiens, UniProt Q7Z3E1); experiment: Inhibition of PARP-7 (unknown origin)
# T1 sequence (Q7Z3E1 whole entry): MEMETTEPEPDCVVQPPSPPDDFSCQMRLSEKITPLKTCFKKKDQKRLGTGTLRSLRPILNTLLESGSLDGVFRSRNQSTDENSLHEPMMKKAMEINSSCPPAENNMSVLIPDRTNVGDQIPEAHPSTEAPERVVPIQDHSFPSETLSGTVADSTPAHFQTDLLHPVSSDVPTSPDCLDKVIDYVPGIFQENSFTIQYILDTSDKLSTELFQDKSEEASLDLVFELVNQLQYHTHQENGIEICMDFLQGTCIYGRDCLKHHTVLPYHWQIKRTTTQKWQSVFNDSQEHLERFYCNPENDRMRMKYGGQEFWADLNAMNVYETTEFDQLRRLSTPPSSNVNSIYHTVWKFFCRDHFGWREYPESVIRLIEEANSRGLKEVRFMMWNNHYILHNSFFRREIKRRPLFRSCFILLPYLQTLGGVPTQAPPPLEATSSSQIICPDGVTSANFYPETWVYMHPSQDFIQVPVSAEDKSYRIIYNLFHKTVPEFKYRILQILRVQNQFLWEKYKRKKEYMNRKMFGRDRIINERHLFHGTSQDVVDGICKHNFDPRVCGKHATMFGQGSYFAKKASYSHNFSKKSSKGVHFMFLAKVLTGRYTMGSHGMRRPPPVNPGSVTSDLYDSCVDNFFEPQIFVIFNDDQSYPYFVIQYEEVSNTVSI
# HCT-116 [7] = experiment: Induction of apoptosis in human HCT-116 cells assessed as viable cells at 1 uM incubated for 3 days by annexinV-FITC/propidium iodide staining based flow cytometry (reference value: 60.0 %); type: functional; conditions: HCT-116, 72 h, time 3 day, read-out: Activity
# HCT-116 [8] = experiment: Induction of apoptosis in human HCT-116 cells assessed as necrotic cells at 1 uM incubated for 3 days by annexinV-FITC/propidium iodide staining based flow cytometry (reference value: 3.65 %); type: functional; conditions: time 3 day
# HCT-116 [9] = experiment: Induction of cell cycle arrest in human HCT-116 cells assessed as S phase cells at 1 uM incubated for 3 days by propidium iodide staining based flow cytometry (reference value: 11.26 %); type: functional; conditions: time 3 day
# MDA-MB-468 = experiment: Antiproliferative activity against human MDA-MB-468 cells assessed as inhibition of cell growth incubated for 7 days by MTT assay; type: functional, cell-based; conditions: MDA-MB-468, 168 h
# [10] = Toxicity in […] assessed as morphological changes in ileum at 500 mg/kg, ip by H&E staining based histopathological analysis; type: organism-based; conditions: in vivo
# [11] = Toxicity in BALB/c nude mouse xenografted with human HCT116 cells assessed as side effects at 25 to 100 mg/kg, ip administered once daily for 28 days; type: organism-based, HCT-116; conditions: in vivo, 672 h, dose 25-100 mg/kg, time 28 day
# HCT-116 [12] = experiment: Induction of apoptosis in human HCT-116 cells assessed as late apoptotic cells at 1 uM incubated for 3 days by annexinV-FITC/propidium iodide staining based flow cytometry (reference value: 8.71 %); type: functional; conditions: time 3 day
# [13] = Toxicity in […] assessed as effect on body weight at 500 mg/kg, ip administered as single dose and measured on day 7 (reference value: 26.00 +/- 3.16 g); type: organism-based; conditions: in vivo
# HCT-116 [14] = experiment: Induction of cell cycle arrest in human HCT-116 cells assessed as G0/G1 phase cells at 1 uM incubated for 3 days by propidium iodide staining based flow cytometry (reference value: 68.35 %); type: functional; conditions: time 3 day
# HCT-116 [15] = experiment: Induction of apoptosis in human HCT-116 cells assessed as necrotic cells at 5 uM incubated for 3 days by annexinV-FITC/propidium iodide staining based flow cytometry (reference value: 3.65 %); type: functional; conditions: time 3 day
# [16] = Toxicity in […] assessed as morphological changes in colon at 500 mg/kg, ip by H&E staining based histopathological analysis; type: organism-based; conditions: in vivo
# [17] = Toxicity in […] assessed as effect on body weight at 500 mg/kg, ip administered as single dose and measured on day 4 (reference value: 24.50 +/- 3.11 g); type: organism-based; conditions: in vivo
# HCT-116 [18] = experiment: Induction of apoptosis in human HCT-116 cells assessed as late apoptotic cells at 5 uM incubated for 3 days by annexinV-FITC/propidium iodide staining based flow cytometry (reference value: 8.71 %); type: functional; conditions: time 3 day
# [19] = Half-life in Sprague-Dawley rat at 10 mg/kg, po or 1 mg/kg, iv; type: ADME, organism-based; conditions: in vivo
# [20] = Toxicity in […] assessed as rat death administered as single dose at 500 mg/kg, ip; type: organism-based; conditions: in vivo
# HCT-116 [21] = experiment: Induction of apoptosis in human HCT-116 cells assessed as viable cells at 5 uM incubated for 3 days by annexinV-FITC/propidium iodide staining based flow cytometry (reference value: 60.0 %); type: functional; conditions: Homo sapiens, HCT-116, 72 h, time 3 day, read-out: Activity
# Sequence of Protein mono-ADP-ribosyltransferase PARP14 (Q460N5 whole entry): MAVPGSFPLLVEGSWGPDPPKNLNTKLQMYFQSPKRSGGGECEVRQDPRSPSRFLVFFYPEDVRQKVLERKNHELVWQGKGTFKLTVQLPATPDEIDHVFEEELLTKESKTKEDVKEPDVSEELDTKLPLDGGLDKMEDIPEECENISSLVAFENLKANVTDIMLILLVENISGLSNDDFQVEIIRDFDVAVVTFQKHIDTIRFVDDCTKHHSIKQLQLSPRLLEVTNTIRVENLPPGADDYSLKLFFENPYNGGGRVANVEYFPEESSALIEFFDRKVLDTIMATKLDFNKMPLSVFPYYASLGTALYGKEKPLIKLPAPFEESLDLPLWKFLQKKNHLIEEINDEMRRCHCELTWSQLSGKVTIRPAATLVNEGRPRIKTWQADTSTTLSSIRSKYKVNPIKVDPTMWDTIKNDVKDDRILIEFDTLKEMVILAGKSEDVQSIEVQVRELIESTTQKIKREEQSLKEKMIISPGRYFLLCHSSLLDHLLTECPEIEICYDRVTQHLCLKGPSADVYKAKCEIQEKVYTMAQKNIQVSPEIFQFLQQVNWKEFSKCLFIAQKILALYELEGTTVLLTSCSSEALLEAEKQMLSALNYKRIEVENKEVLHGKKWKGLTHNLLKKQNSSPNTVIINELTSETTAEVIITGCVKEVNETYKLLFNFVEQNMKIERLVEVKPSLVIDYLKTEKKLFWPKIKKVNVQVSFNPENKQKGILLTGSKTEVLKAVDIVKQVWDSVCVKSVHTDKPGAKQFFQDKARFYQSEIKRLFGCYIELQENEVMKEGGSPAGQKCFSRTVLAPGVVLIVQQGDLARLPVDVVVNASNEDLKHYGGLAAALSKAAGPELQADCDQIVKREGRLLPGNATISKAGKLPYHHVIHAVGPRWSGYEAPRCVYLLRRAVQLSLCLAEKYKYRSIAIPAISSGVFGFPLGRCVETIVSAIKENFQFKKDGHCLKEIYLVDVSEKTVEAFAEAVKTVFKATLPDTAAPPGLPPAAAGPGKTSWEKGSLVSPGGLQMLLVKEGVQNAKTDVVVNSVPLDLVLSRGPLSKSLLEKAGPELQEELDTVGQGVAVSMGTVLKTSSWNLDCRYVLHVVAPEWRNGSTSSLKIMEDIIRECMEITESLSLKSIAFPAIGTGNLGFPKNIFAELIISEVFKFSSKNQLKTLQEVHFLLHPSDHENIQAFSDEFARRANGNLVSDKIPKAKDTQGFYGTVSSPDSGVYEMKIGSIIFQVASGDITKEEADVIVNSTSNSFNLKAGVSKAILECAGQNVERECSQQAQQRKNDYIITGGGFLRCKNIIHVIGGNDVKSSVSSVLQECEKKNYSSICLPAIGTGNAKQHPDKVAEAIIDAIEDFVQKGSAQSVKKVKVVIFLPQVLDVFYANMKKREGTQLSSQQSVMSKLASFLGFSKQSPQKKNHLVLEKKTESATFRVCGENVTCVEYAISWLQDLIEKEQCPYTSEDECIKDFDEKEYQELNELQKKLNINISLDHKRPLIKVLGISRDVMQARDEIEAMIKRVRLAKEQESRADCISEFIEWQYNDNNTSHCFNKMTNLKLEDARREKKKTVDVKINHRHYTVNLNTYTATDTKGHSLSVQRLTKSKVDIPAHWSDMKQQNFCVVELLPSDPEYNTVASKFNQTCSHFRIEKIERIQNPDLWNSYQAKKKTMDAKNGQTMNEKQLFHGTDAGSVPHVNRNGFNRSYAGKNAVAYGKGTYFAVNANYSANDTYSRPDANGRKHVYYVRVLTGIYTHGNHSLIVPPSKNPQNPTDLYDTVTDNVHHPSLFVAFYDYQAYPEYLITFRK
smiles,measurement,setting,value
COc1ccc(NC(=O)c2ccc(NC(=O)N3CCN(C(=O)c4cc(Cc5n[nH]c(=O)c6ccccc56)ccc4F)CC3)cc2)cc1,Activity,HCT-116 [1],4.19%
same,inhibition in vivo at 100 mg/kg,HCT-116 [2],51.7%
same,pIC50,[3],5.86
same,CL,[4],90.67 mL/min/kg
same,inhibition,HCT-116 [5],Active
same,pIC50,[6],7.82
same,viability at 1 µM,HCT-116 [7],71.3%
same,Activity,HCT-116 [8],4.57%
same,Activity,HCT-116 [9],9.31%
same,pIC50,MDA-MB-468,7.05
same,Activity,[10],Non-Toxic
same,Activity,[11],Non-Toxic
same,Activity,HCT-116 [12],15.3%
same,Activity,[13],24.25 g
same,Activity,HCT-116 [14],59.2%
same,Activity,HCT-116 [15],8.56%
same,Activity,[16],Non-Toxic
same,Activity,[17],23 g
same,Activity,HCT-116 [18],39.5%
same,half-life,[19],1.73 h
same,Activity,[20],Non-Toxic
same,viability at 5 µM,HCT-116 [21],45.1%
